Experimental data reported in publication PMC3230241 (Nature biotechnology, 2011).

Target: MRCKα (Homo sapiens, UniProt Q5VT25)
Assay: HotSpot radiometric kinase assay, MRCKα
Type: biochemical
Conditions: compound 0.5 μM, 10 μM ATP

Sequence of MRCKα (Q5VT25 1-473): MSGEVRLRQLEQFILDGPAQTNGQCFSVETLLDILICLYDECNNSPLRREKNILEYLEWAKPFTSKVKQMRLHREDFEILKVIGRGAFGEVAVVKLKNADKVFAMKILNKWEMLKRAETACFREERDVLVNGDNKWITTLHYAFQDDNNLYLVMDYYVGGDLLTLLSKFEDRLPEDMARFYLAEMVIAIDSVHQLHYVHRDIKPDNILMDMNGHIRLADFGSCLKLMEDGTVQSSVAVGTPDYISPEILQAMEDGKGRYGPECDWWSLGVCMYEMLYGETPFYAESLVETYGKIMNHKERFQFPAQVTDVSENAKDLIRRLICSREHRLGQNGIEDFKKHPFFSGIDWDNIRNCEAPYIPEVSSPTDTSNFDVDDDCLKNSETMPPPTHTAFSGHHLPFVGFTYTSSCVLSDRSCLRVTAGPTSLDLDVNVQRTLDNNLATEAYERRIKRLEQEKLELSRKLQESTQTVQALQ

`O=C(Nc1cccc(Nc2cc(Nc3cccc(C(F)(F)F)c3)ncn2)c1)C1CC1` [EGFR Inhibitor] was tested. Which “inhibition of MRCKα (next most potent target)” value did it give?
Its value is 22%.
